Values after ≈ are worked out from the molar mass of the structure shown.
Tests used:
Assay type in all cases: cell-based
[1] = test system: Helicobacter pylori TK1029 strain; assay: Proliferation inhibitory effect (in vitro) by ED50 measurement, viable count; conditions: BHI 2% FCS, viable count; for ED50 value, 15 hr later: 15 hr shaking culture; for ED50 value, 25 hr later: 25 hr shaking culture
Protocol: Helicobacter pylori TK1029 strain (clinical isolate) was cultured in Brucella broth containing 10% FCS and 1×10^6 CFU of bacteria were respectively added to 3 mL of Brain-Heart Infusion Broth (BHI) media (previously added with free fatty acid (stearic acid, oleic acid, linoleic acid, ricinoleic acid, HYA) at 0, 0.5, 5, 50, 500 μg/mL) containing 2% FCS in a 6-well plate. Shaking culture was performed under conditions of temperature 37° C., humidity 100%, microaerobic (5% 02, 10% CO2, 85% N2), the culture medium (0.1 mL) from each well was applied to NISSUI plate, Helicobacter agar medium 15 hr and 25 hr later, and the number of colonies formed after microaerobic culture for 3 days was counted.

[2] = test system: Helicobacter pylori SS1 strain, TN2GF4 strain, ATCC43579 strain, NCTC11637 strain, TY281 strain, TY1345 strain; assay: Proliferation inhibitory effect (in vitro), static culture 3 days, colony count; conditions: menaquinone (MK-4) 100 μg/mL added with fatty acid
Protocol: Helicobacter pylori SS1 strain, TN2GF4 strain, ATCC43579 strain, NCTC11637 strain, TY281 strain, TY1345 strain were each inoculated to a 6-well plate containing 3 mL of a liquid medium (Brucella broth added with 10% FCS), and fatty acid (200 μM or 1000 μM) and menaquinone (MK-4) 100 μg/mL were added. After static culture for 3 days at temperature 37° C., microaerobic conditions (5% 02, 10% 002, 85% N2), the culture medium was applied on a Helicobacter agar plate, cultured for 3 days and the resulting colonies were counted (FIG. 1-1 A: SS1 strain, FIG. 1-2 B: TN2GF4 strain, FIG. 1-3 C: ATCC43579 strain, FIG. 1-4 D: NCTC11637 strain, FIG. 1-5 E: TY281 strain, FIG. 1-6 F: TY1345 strain. Item C: control (no addition), Item 1: HYA addition, Item 2: HYA and menaquinone addition, Item 3: linoleic acid addition, Item 4: linoleic acid and menaquinone addition).

[3] = test system: Helicobacter pylori SS1 strain, TN2GF4 strain, TK1029 strain, RC-1 strain; assay: Proliferation inhibitory effect (in vitro) of low concentration fatty acid, shaking culture 24 hr, colony count; conditions: menaquinone (MK-4) 100 μg/mL added with fatty acid 20 μM
Protocol: Helicobacter pylori SS1 strain, TN2GF4 strain, TK1029 strain, RC-1 strain were each inoculated to a 6-well plate containing 2 mL of a liquid medium (BHI added with 5% FCS), and fatty acid (20 μM) and menaquinone (MK-4) 100 μg/mL were added. After shaking culture for 24 hr at temperature 37° C., microaerobic conditions (5% 02, 10% CO2, 85% N2), the culture medium was applied on a Helicobacter agar plate, cultured for 3 days and the resulting colonies were counted (FIG. 2-1 A: SS1 strain, FIG. 2-2 B: TN2GF4 strain, FIG. 2-3 C: TK1029 strain, FIG. 2-4 D: RC-1 strain. Item 1: control (menaquinone no addition), Item 2: control (menaquinone 100 μg/mL addition), Item 3: HYA 20 μM (menaquinone no addition), Item 4: HYA 20 μM (menaquinone 100 μg/mL addition), Item 5: linoleic acid 20 μM (menaquinone no addition), Item 6: linoleic acid 20 μM (menaquinone 100 μg/mL addition). *, P<0.0001 vs. Control (ordinary one-way ANOVA)).

[4] = test system: Campylobacter jejuni ATCC33560 strain; assay: Proliferation inhibitory effect (in vitro) on Campylobacter jejuni, absorbance and colony count; conditions: 100, 200, 400 μM, 24 hr; concentration dependent; strong compared to linoleic acid
[5] = test system: Campylobacter coli ATCC33559 strain; assay: Proliferation inhibitory effect (in vitro) on Campylobacter coli, absorbance and colony count; conditions: 100, 200, 400 μM, 24 hr; concentration dependent; strong compared to linoleic acid

Structure (SMILES) | ED50 value, 15 hr later [1] [µg/mL] | ED50 value, 25 hr later [1] [µg/mL] | other results
CCCCC/C=C\C/C=C\CCCCCCCC(=O)O [linoleic acid] | 50 (≈ 178 µM) | 50 (≈ 178 µM) | 
CC(C)=CCC/C(C)=C/CC/C(C)=C/CC/C(C)=C/CC1=C(C)C(=O)c2ccccc2C1=O [menaquinone (MK-4), menaquinone] |  |  | effect of menaquinone addition on inhibition of proliferation by fatty acid [2]: mitigated inhibition of proliferation; effect of menaquinone addition on inhibition of proliferation by fatty acid [3]: mitigated inhibition of proliferation
CCCCCCCC/C=C\CCCCCCCC(=O)O [oleic acid] | 50 (≈ 177 µM) | >50 | 
CCCCCC[C@@H](O)C/C=C\CCCCCCCC(=O)O [ricinoleic acid] | 5 (≈ 16.8 µM) | 0.5 (≈ 1.68 µM) | 
CCCCCCCCCCCCCCCCCC(=O)O [stearic acid] | 500 (≈ 1760 µM) | >500 | 
CC/C=C\C/C=C\CC(O)CCCCCCCCC(=O)O (stereo not drawn) [αHYA, 10-hydroxy-cis-12,cis-15-octadecadienoic acid] |  |  | proliferation of Campylobacter jejuni ATCC33560 strain [4]: inhibited proliferation; proliferation of Campylobacter coli ATCC33559 strain [5]: inhibited proliferation
CCCCC/C=C\CC(O)CC/C=C\CCCCC(=O)O (stereo not drawn) [γHYA, 10-hydroxy-cis-6,cis-12-octadecadienoic acid] |  |  | proliferation of Campylobacter jejuni ATCC33560 strain [4]: inhibited proliferation; proliferation of Campylobacter coli ATCC33559 strain [5]: inhibited proliferation
